From patent US10322112B2, “Compound combinations for attenuation of bacterial virulence” (priority 2016, dated 2019)
Entries after “also recorded” stand apart in the source; their conditions may differ.

Tested on: P. aeruginosa (PAO1)
Experiment: P. aeruginosa growth curves
Format: cell-based, Pseudomonas aeruginosa
Description: FIGS. 2A-2D are wild-type P. aeruginosa growth curves in the presence of test compounds in various media. Related to FIGS. 3, 6A and 6B, 7A and 7B, and 12. (FIG. 2A) Growth curves in complete MOPS/Glutamate. (FIG. 2B) Growth curves in complete MOPS/Glucose. […] (FIG. 2D) Growth curves in SCFM2. P. aeruginosa (PAO1) was grown in a manner identical to the pyocyanin assay (see Experimental Procedures). At each time point, growth was measured by either reading OD600 (for MOPS media) or by serially diluting culture aliquots, plating on LB agar, and counting CFUs after overnight incubation at 37° C. (for SCFM2). Compound concentrations are 100 microM for compounds 1, 2, and 3 and 25 microM for compound 4 in all experiments unless noted otherwise. Error bars represent the standard error of at least two biological replicates (n≥2). BHL=N-butyryl L-homoserine lactone (Cayman Chemicals).
B. Bacterial Strains and Growth Conditions. Protocols for construction of genetic knockout strains are described below in Example 2. All reagents for bacterial culture were purchased from Sigma-Aldrich unless indicated otherwise. Bacteria were routinely cultured in Luria-Bertani broth (LB) at 37° C. with shaking at 200 rpm. Freezer stocks of bacterial strains were maintained at −80° C. in 1:1 LB:glycerol. Bacterial growth was routinely assessed by measuring the culture cell density according to absorbance at 600 nm (OD600341). Cell growth in simulated cystic fibrosis sputum medium (SCFM2) was determined by serially diluting assay cultures, plating on LB agar, and counting the number of colony forming units (CFU) appearing after overnight incubation at 37° C.

## O=C(N[C@H]1CCOC1=O)C1CCCC1 [compound 3]
Complete MOPS Glucose or LB broth, 100 μM compound 3
  growth with other carbon sources: did not observe growth effects with other carbon sources
Complete MOPS Glutamate, 100 μM
  growth in MOPS Glutamate: growth delay; also recorded: delayed P. aeruginosa growth in MOPS Glutamate
